Measured values as given in publication PMC12361428 (Nature Communications, 2025).
“And” between values parts separate entries of the source, which are not always exact repeats. Equal values may be shown once.

How the values were obtained:
A1AR = conditions: source not given; cited from earlier work
[1] = test system: Nluc-tagged hA3AR-BRIL-S97R; experiment: NanoBRET washout (irreversible binding) assay vs XAC-630
[2] = test system: A3AR H95^3.37 alanine mutation; conditions: cited from earlier work

SMILES | pKi (A1AR) | NanoBRET washout assay, normalised signal (Figure S2G), individual replicates ([1]; 4 x Wash) | NanoBRET washout assay, normalised signal (Figure S2G), individual replicates ([1]; Control (no wash)) | decrease in binding [2] [fold]
CCCn1c(=O)c2[nH]c(C3CCCCC3)nc2n(CCCNC(=O)c2ccc(S(=O)(=O)F)cc2)c1=O [DU172] | 7.4 |  |  | 
O=C(Cc1ccccc1)Nc1nc2ccc(Cl)cc2c2nc(-c3ccco3)nn12 [MRS1220, 9-Chloro-2-(2-furanyl)-5-((phenylacetyl)amino)-[1,2,4]triazolo[1,5-c]quinazoline] |  | 60.7809 and 60.2862 and 64.3691 | 11.5596 and 12.4414 and 6.2814 and 13.7989 | 
CNC(=O)[C@H]1O[C@@H](n2cnc3c(NCc4cccc(I)c4)nc(Cl)nc32)[C@H](O)[C@@H]1O [Namodenoson] |  |  |  | 30
CC[C@@H]1CN2C(=O)N(C)c3nc(-c4ccccc4)[nH]c3C2=N1 [PSB11] |  | 116.307 and 107.384 and 90.4226 and 99.5492 | 1.581 and 3.183e-15 and -2.281 and -2.887e-15 | 
